Earlier results, collected in patent publication US6495170B1, “Method of increasing the presence of glutathione in cells” (N. V. Nutricia, priority 2000, dated 2002).
Each block holds one molecule with its values, some of them ahead of it.

Tests used:
[1] = ingested in large amounts
γ-GCS = details: mediated by increased expression of γ-GCS mRNA and enzyme activity via AP-1
[2] = 50 mg/kg p.o., mice treated with CCl4
[3] = 200 μg/day supplement for 2 months
[4] = mice, ethanol-induced liver peroxidation, pretreatment 200 mg/kg
[5] = test system: glutathione-S-transferase
hepatic glutathione = details: induced by ethyl alcohol and paracetamol, rats
[6] = test system: hepatoblastoma Hep G2 cells

Molecule: CC(=O)Nc1ccc(O)cc1 [Acetaminophen, acetaminophen]
hepatotoxicity [1]: severe hepatic necrosis

Molecule: COc1cc(C(C)=O)ccc1O [Apocynin]
intracellular GSH synthesis (γ-GCS): enhances

Molecule: O=NN(CCCl)C(=O)NCCCl [BCNU]
GSH reductase activity (mitochondrial GSH; CCl4-intoxicated mice): inhibited
effect on the protective activity of schisandrin B (mitochondrial GSH; CCl4-intoxicated mice): did not affect

Molecule: COc1cc(C(=O)O[C@H]2[C@@H]3C=CO[C@@H](O[C@@H]4O[C@H](CO)[C@@H](O)[C@H](O)[C@H]4O)[C@@H]3[C@@]3(CO)O[C@@H]23)ccc1O [Picroside II]
hepatoprotective activity [2]: showed a hepatoprotective activity

Molecule: [Se] [Selenium]
peroxidative parameters [3]: no effect
plasma selenium levels and glutathione peroxidase [3]: significantly improved

Molecule: COc1cc2c(c(OC)c1OC)-c1c(cc3c(c1OC)OCO3)CC(C)C(C)C2 (stereo not shown) [schisandrin B]
GSH-peroxidase activity [4]: unaffected
dismutase and catalase activity [4]: increased
GSH/GSSG ratio (mitochondrial GSH; 3 mmol/kg/day p.o.): elevating
GSSG level (mitochondrial GSH; 3 mmol/kg/day p.o.): decreased
mitochondrial GSH level (mitochondrial GSH; 3 mmol/kg/day p.o.): increased
mitochondrial GSH reductase activity (mitochondrial GSH; 3 mmol/kg/day p.o.): increased

Molecule: COc1cc2c(c(O)c1OC)-c1c(cc(OC)c(OC)c1OC)C[C@@H](C)[C@@H](C)C2 [schisanhenol]
GSH-peroxidase activity [4]: unaffected
dismutase and catalase activity [4]: increased

activity of superoxide dismutase and glutathione peroxidase (human erythrocytes): increased
Molecule: COc1cc(C2Oc3cc([C@H]4Oc5cc(O)cc(O)c5C(=O)[C@@H]4O)ccc3OC2CO)ccc1O (stereo partly shown) [silybin]
superoxide and hydrogen peroxide production (human neutrophils): inhibitory effects
GSH depletion by buthionine sulfoximide (isolated rat hepatocytes): does not affect
GSH depletion induced by acetaminophen (isolated rat hepatocytes): reduces
inhibition of glutathione-S-transferase [5]: potent, non-toxic, inhibitor
hepatic glutathione depletion (hepatic glutathione): protect

Molecule: [Zn] [zinc, Zinc]
plasma zinc bound to RBP: < 2%
plasma zinc bound to albumin: 80-85%
plasma zinc bound to alpha2-macroglobulin: 15%

Molecule: silymarin
acetaminophen-induced GSH depletion and cytotoxicity [6]: protects
